Data taken from patent US8048881B2, “Pyrimidine derivatives and their use as P2Y12 receptor antagonists” (Actelion Pharmaceuticals Ltd., priority 2005, dated 2011).
Where a name gives a salt, the structure may show the parent alone.

Molecular target: T1, human P2Y12 receptor (Homo sapiens, UniProt Q9H244)
T1 construct: expressed in transfected cells; host or cells: Chinese Hamster Ovary (CHO) cells
Assay: P2Y12 receptor binding assay
Details: CHO cells with recombinant expression of the human P2Y12 receptor; tritium-labeled 2-methyl-S-ADP; incubation at room temperature for 2 hours
Description: P2Y12 Receptor Binding Assay
Chinese Hamster Ovary (CHO) cells with recombinant expression of the human P2Y12 receptor were cultured in 24 well cell-culture plates. Cells were washed three times with binding buffer (50 mM Tris pH 7.4, 100 mM NaCl, 1 mM EDTA, 0.5% BSA). The cells were then incubated with 0.5 ml per well binding buffer containing tritium-labeled 2-methyl-thio-adenosine 5′-diphosphate (2-methyl-S-ADP) (between 100'000 and 300'000 dpm per well) and various concentrations of test compounds. After incubation at room temperature for 2 hours, cells were washed three times with binding buffer. Then, cells were solubilized by addition of 0.5 ml solubilization buffer (SDS, NaOH, EDTA). The content of each well was then transferred into beta-counter vials and 2.0 ml of Ultima Gold Scintillation liquid was added.

T1 sequence (Q9H244 whole entry): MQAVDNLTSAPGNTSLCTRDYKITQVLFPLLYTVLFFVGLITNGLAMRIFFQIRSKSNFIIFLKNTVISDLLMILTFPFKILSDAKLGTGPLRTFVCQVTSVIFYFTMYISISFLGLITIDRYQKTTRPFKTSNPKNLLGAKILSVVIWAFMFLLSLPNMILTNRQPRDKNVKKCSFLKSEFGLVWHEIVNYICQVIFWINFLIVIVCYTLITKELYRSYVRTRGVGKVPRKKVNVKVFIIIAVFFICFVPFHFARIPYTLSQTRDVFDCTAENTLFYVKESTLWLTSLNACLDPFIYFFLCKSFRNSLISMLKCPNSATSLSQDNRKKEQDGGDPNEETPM

Row | Compound | IC50 [nM]
1 | CCOC(=O)N1CCN(C(=O)[C@H](CCC(=O)O)NC(=O)c2cc(OC3CCCC3)nc(-c3ccccc3)n2)CC1 [Example 1, 4-{(S)-4-carboxy-2-[(6-cyclopentyloxy-2-phenyl-pyrimidine-4-carbonyl)-amino]-butyryl}-piperazine-1-carboxylic acid ethyl ester] | 117
2 | CCOC(=O)N1CCN(C(=O)[C@H](CC(=O)O)NC(=O)c2cc(OC3CCCC3)nc(-c3ccccc3)n2)CC1 [Example 2, 4-{(S)-3-carboxy-2-[(6-cyclopentyloxy-2-phenyl-pyrimidine-4-carbonyl)-amino]-propionyl}-piperazine-1-carboxylic acid ethyl ester] | 243
3 | CCOC(=O)N1CCN(C(=O)[C@H](CO)NC(=O)c2cc(OC3CCCC3)nc(-c3ccccc3)n2)CC1 [Example 10, 4-{(S)-2-[(6-cyclopentyloxy-2-phenyl-pyrimidine-4-carbonyl)-amino]-3-hydroxy-propionyl}-piperazine-1-carboxylic acid ethyl ester] | 307
4 | CCOC(=O)N1CCN(C(=O)[C@H](CCc2nnn[nH]2)NC(=O)c2cc(OC3CCCC3)nc(-c3ccccc3)n2)CC1 [Example 19, 4-[(S)-2-[(6-cyclopentyloxy-2-phenyl-pyrimidine-4-carbonyl)-amino]-4-(1H-tetrazol-5-yl)-butyryl]-piperazine-1-carboxylic acid ethyl ester] | 127
5 | CCOC(=O)N1CCN(C(=O)[C@H](Cc2ccc(C(=O)O)cc2)NC(=O)c2cc(OC3CCCC3)nc(-c3ccccc3)n2)CC1 [Example 21, 4-{(S)-3-(4-carboxy-phenyl)-2-[(6-cyclopentyloxy-2-phenyl-pyrimidine-4-carbonyl)-amino]-propionyl}-piperazine-1-carboxylic acid ethyl ester] | 201
6 | CCOC(=O)N1CCN(C(=O)[C@H](CCC(=O)O)NC(=O)c2cc(OCC3CC3)nc(-c3ccccc3)n2)CC1 [Example 27, 4-{(S)-4-carboxy-2-[(6-cyclopropylmethoxy-2-phenyl-pyrimidine-4-carbonyl)-amino]-butyryl}-piperazine-1-carboxylic acid ethyl ester] | 193
7 | CCOC(=O)N1CCN(C(=O)C(Cc2cccc(OCC(=O)O)c2)NC(=O)c2cc(OC3CCCC3)nc(-c3ccccc3)n2)CC1 (centres unmarked) [Example 31, 4-{3-(3-carboxymethoxy-phenyl)-2-[(6-cyclopentyloxy-2-phenyl-pyrimidine-4-carbonyl)-amino]-propionyl}-piperazine-1-carboxylic acid ethyl ester] | 592
8 | CC(C)OC(=O)N1CCN(C(=O)[C@H](CCC(=O)O)NC(=O)c2cc(OC3CCCC3)nc(-c3ccccc3)n2)CC1 [Example 38, 4-{(S)-4-carboxy-2-[(6-cyclopentyloxy-2-phenyl-pyrimidine-4-carbonyl)-amino]-butyryl}-piperazine-1-carboxylic acid isopropyl ester] | 95
9 | CCOC(=O)N1CCN(C(=O)[C@H](CCC(=O)O)NC(=O)c2cc(OC3CCCC3)nc(-c3ccccc3)n2)CC1C (stereo partly drawn) [Example 46, 4-{(S)-4-carboxy-2-[(6-cyclopentyloxy-2-phenyl-pyrimidine-4-carbonyl)-amino]-butyryl}-2-methyl-piperazine-1-carboxylic acid ethyl ester] | 510
10 | CCOC(=O)CCNc1cc(C(=O)N[C@@H](CCC(=O)O)C(=O)N2CCN(C(=O)OCC)CC2)nc(-c2ccccc2)n1 [Example 59, 4-((S)-4-carboxy-2-{[6-(2-ethoxycarbonyl-ethylamino)-2-phenyl-pyrimidine-4-carbonyl]-amino}-butyryl)-piperazine-1-carboxylic acid ethyl ester triflate salt] | 276
11 | CCOC(=O)N1CCN(C(=O)[C@H](CCC(=O)O)NC(=O)c2cc(NCCCN3CCOCC3)nc(-c3ccccc3)n2)CC1 [Example 66, 4-((S)-4-carboxy-2-{[6-(3-morpholin-4-yl-propylamino)-2-phenyl-pyrimidine-4-carbonyl]-amino}-butyryl)-piperazine-1-carboxylic acid ethyl ester triflate salt] | 202
